Source: patent US8168656B2, “Indoleacetic acid and indenacetic acid derivatives as therapeutic agents with reduced gastrointestinal toxicity” (Vanderbilt University, priority 2009, dated 2012)
Numbering of substitutions follows the chain as printed.

How the values were obtained:
wild type mCOX-2 = molecular target: T1, wild type mCOX-2 (Mus musculus, UniProt Q05769); test: Steady-state quenching of COX intrinsic fluorescence (apo-protein); type: binding, murine
T1 construct: made in house; host or cells: Sf9 insect cells (baculovirus, pVL1393)
T1 sequence (Q05769 18-604): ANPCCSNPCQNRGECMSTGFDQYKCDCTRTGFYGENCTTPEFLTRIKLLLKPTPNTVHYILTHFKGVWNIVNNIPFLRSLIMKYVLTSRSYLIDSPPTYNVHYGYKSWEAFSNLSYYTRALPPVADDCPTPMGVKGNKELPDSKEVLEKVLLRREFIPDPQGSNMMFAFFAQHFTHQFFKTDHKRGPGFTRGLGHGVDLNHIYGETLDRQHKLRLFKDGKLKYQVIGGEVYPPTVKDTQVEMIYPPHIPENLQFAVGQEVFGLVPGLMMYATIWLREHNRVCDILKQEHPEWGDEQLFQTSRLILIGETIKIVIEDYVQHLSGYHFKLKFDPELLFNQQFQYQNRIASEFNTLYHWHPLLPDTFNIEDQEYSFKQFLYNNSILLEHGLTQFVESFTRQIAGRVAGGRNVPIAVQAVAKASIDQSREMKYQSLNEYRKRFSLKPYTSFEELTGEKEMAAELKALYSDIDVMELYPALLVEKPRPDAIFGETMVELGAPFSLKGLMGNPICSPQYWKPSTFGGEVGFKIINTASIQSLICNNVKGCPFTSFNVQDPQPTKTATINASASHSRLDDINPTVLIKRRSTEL
Procedure: (§1) Steady-state measurements were performed at 37° C. in a 3.5 ml fluorescence cuvette with continuous stirring. […] Data were collected over 240 or 360 seconds with 2-second integration times. The reversibility of quenching was analyzed in the same manner, with subsequent addition of 50 μM AA as competitor. The ligands were dissolved in DMSO before further dilution into buffer. The organic component in the buffer was below 0.4%.
(§2) This assay provided a method to directly monitor the binding of INDO and DM-INDO to COXs. Various concentrations of INDO and DM-INDO were added to apo-proteins and the rate of fluorescence decrease was monitored over time. After the mixture reached equilibrium, 50 μM of AA was added as competitor to monitor the reversibility of binding. The kinetic data for quenching were analyzed in the same manner as those for inhibition. For clarity, the equilibrium constant for the first step of fluorescence quenching is referred to as Kd, and k2 and k−2 from the second step of quenching are represented by k′2 and k′−2, respectively.

mCOX-2^V349A = molecular target: T2, mCOX-2^V349A (Mus musculus, UniProt Q05769, V335A); test: as above; type: binding, murine
T2 construct: made in house; host or cells: Sf9 insect cells (baculovirus, pVL1393)
T2 sequence (Q05769 18-604 V335A): T1 sequence (Q05769 18-604) with V318A
Procedure: as §1, §2

[1] = fluorescence increase from competition with 50 μM AA

COc1ccc2c(c1)c(CC(=O)O)cn2C(=O)c1ccc(Cl)cc1 [DM-INDO, 2-Des-methylindomethacin]
k′−2^b (wild type mCOX-2; [1]): 0.007 ± 0.001 s⁻¹ | Kd (wild type mCOX-2; fluorescence quenching): 16 ± 9 µM | k′2 (wild type mCOX-2; fluorescence quenching): 0.16 ± 0.04 s⁻¹ | k′−2 (wild type mCOX-2; fluorescence quenching (decay)): 0.006 ± 0.002 s⁻¹ | k′−2^b (mCOX-2^V349A; [1]): 0.046 ± 0.002 s⁻¹ | Kd (mCOX-2^V349A; fluorescence quenching): 1.4 ± 0.3 µM | k′2 (mCOX-2^V349A; fluorescence quenching): 0.17 ± 0.04 s⁻¹ | k′−2 (mCOX-2^V349A; fluorescence quenching (decay)): 0.045 ± 0.008 s⁻¹
